Like-named read-outs stand apart in the source and are kept apart here.
Tested on: HCT116 cells
Details: for Duplication time: HCT116, 2-D culture, n = 3; for Maximal cellular densities: reached at day 7
Protocol: All cancer and non-cancer cell lines used were purchased from ATCC and cultured in DMEM (Sigma-Aldrich) supplemented with 10% fetal bovine serum (Biowest, Nuaillé, France) and 10,000 U penicillin/streptomycin (Sigma-Aldrich) and placed under a humidified atmosphere of 5% CO2/95% air at 37°C.
Cell growth was followed by counting cellular density every 24 h during 7 to 8 days. […] The duplication time was determined by using the following equation: n=1/[3.32(logNF-logNI)]/(tF-tI) , where NF represents the number of cultured cells at the end of the exponential growth phase; NI represents the number of cells at the beginning of the growth curve; tF is the final time at which cells were harvested, and tI is the initial culture time. The specific growth rate μ was calculated from the slope of a semilogarithmic plot of cell densities in the exponential growth phase vs. time ([88]).

Cl.N [NH4Cl, Ammonium chloride]
Duplication time (+5 mM NH4Cl): 45 ± 1 h | Duplication time (+10 mM NH4Cl): 39 ± 2 h | Maximal cellular densities (HCT116, +5 mM NH4Cl): 76 ± 11 ×10^3 | Maximal cellular densities (HCT116, +10 mM NH4Cl): 80 ± 13 ×10^3
